Where two headings read alike, the source gives them in different places.
Legend:
[1] = saluretic efficiency test in rats: elimination of water, sodium, chloride and potassium in 6 h urine after oral dosing; type: in vivo; conditions: rats, oral; for change in vivo at 40 µmol/kg / change in vivo at 80 µmol/kg: Rattus norvegicus
Experimental: In order to test the saluretic efficiency of the compounds of the invention rats having a weight of 150 to 200 g were used. The animals were kept without food, but not without drinking water, for 15 hours before the beginning of the test. The test substances were administered to groups of four rats, of substantially equal weight, with a rigid stomach probe in a 1% methyl cellulose slime. The dose required per 100 g animal (unit dosage in μmol/kg body weight) was contained in one ml. Following the administration of the substance the rats were given 5 ml 0.9% sodium chloride solution per 100 g body weight p.o. and placed in a diuresis funnel after manually emptying the bladder. Urine was collected for 6 hours in an airconditioned chamber at 24°±1° C. and a relative air humidity of 50±5%. The diuretic effect of a particular dose was tested on at least two, but more frequently however on four to eight groups of rats. Two sodium chloride controls were also used for each test day.
At the end of the collecting periods the volumes of urine discharged per group were noted and the pH value and also the content of sodium, potassium (flame-photometrically) and chloride (measured argentometrically with the determination of the end point potentiometrically) were determined.
From the analysis results the quantities of Na^+, K^+ and Cl^- eliminated were calculated in […] body weight, and the values thus obtained compared with those of the control animals.
Means values and twice the standard deviation were calculated from the data for the sodium chloride controls, in order to determine the normal range. Then, for the values found with the test substances, the percentage variations from the average in respect of these parameters were calculated and tabulated. In this connection, with the results given in Table 1, the upper limit of the normal range, which is defined as the mean value plus twice the standard deviation, was selected as the reference quantity for the variations. In this way relevant hyper-eliminations could clearly be recognised.
In Table 2, the mean percentage variations in potassium elimination after administration of the compounds in accordance with the invention are compared with the mean value of the potassium elimination in the case of the sodium chloride controls. At the same time the […] ratio is given which provides conclusive evidence of the effective saluretic property. The larger this quotient is, then the more sodium than potassium is eliminated in proportion.

[2] = comparison of toxicity in mice: oral LD50 by the Lichtfiel & Wilcoxon method; type: in vivo; conditions: observation period 7 days, 95% confidence limit in brackets
From the text: In Table 3 the mean lethal doses for mice, administered orally (LD50 determination by the […] & WILCOXON method - J.Pharmacol. Exp. Ther. 96,98 (1949)) are compared.

[3] = mice, oral; literature value; cited from earlier work
[4] = 6 h, 40 μmol/kg body wt., relative to mean K+ elimination of the controls, read-out: Mean percentage variation in the elimination of potassium
[5] = 6 h, 80 μmol/kg body wt., relative to mean K+ elimination of the controls, read-out: Mean percentage variation in the elimination of potassium
[6] = 40 μmol/kg body wt., deviation from control mean plus twice the standard deviation, 6 h urine, read-out: Mean percentage variation in the elimination of Chloride
[7] = 40 μmol/kg body wt., deviation from control mean plus twice the standard deviation, 6 h urine, read-out: Mean percentage variation in the elimination of H2O
[8] = 40 μmol/kg body wt., deviation from control mean plus twice the standard deviation, 6 h urine, read-out: Mean percentage variation in the elimination of Sodium
[9] = 80 μmol/kg body wt., deviation from control mean plus twice the standard deviation, 6 h urine, read-out: Mean percentage variation in the elimination of Chloride
[10] = 80 μmol/kg body wt., deviation from control mean plus twice the standard deviation, 6 h urine, read-out: Mean percentage variation in the elimination of H2O
[11] = 80 μmol/kg body wt., deviation from control mean plus twice the standard deviation, 6 h urine, read-out: Mean percentage variation in the elimination of Sodium
[12] = 40 μmol/kg body wt., deviation from control mean plus twice the standard deviation, 6 h urine
[13] = 80 μmol/kg body wt., deviation from control mean plus twice the standard deviation, 6 h urine

| Molecule | change in vivo at 40 µmol/kg [1, 4] | change in vivo at 80 µmol/kg [1, 5] | change in vivo at 40 µmol/kg [1, 6] | change in vivo at 40 µmol/kg [1, 7] | change in vivo at 40 µmol/kg [1, 8] | change in vivo at 80 µmol/kg [1, 9] | change in vivo at 80 µmol/kg [1, 10] | change in vivo at 80 µmol/kg [1, 11] | Quotient Na/K ([1]; 40 μmol/kg body wt.) | Quotient Na/K ([1]; 80 μmol/kg body wt.) | LD50 ([2]; mouse, in vivo, read-out: LD50) | other results |
| --- | --- | --- | --- | --- | --- | --- | --- | --- | --- | --- | --- | --- |
| COc1cc(C)c(C(O)(c2ccccc2)C(C)N2CCCCC2)cc1C(C)C (stereo not shown) [T 1523, 1-(4'-methoxy-2'-methyl-5'-isopropylphenyl)-1-phenyl-2-piperidino-propan-1-ol] | 25.5% | 13.3% | -5.1% | 28.9% | 13.1% | 14.2% | 39.6% | 28.2% | 5.35 | 6.72 | > 3200 mg/kg | – |
| Cc1c(C(O)(c2ccccc2)C(C)N2CCCCC2)cc2c(c1C)OCCC2 (stereo not shown) [T 2129, 1-(7',8'-dimethylchromanyl-(6'))-1-phenyl-2-piperidino-propan-1-ol] | 12.3% | 35.7% | 12.4% | 23.9% | 32.6% | 22% | 21.3% | 19.4% | 7.02 | 5.23 | > 3200 mg/kg | – |
| COc1c(C)cc(C(O)(c2cc(C(C)C)c(OC)c(C(C)C)c2)C(C)N2CCCCC2)cc1C (stereo not shown) [T 2266, 1-(4'-methoxy-3',5'-diisopropylphenyl)-1-(4"-methoxy-3",5"-dimethylphenyl)-2-piperidinopropan-1-ol] | -2% | 4% | -13.2% | -12.9% | -7.7% | 12.2% | 19.7% | 19.4% | 5.59 | 6.81 | > 3200 mg/kg | – |
| C=CCc1cc2c(cc1C(O)(c1ccc(OC)cc1)C(C)N1CCCCC1)OCO2 (stereo not shown) [T 2378, 1-(3',4'-methylenedioxy-6'-allylphenyl)-1-(4"-methoxyphenyl)-2-piperidino-propane-1-ol] | 11.2% | 32.7% | -5.6% | 6.7% | 6.7% | -20.4% | 39.6% | 45% | 5.70 | 6.49 | 1600 mg/kg | – |
| COc1c(C(C)C)cc(Cl)c(C)c1C(O)(c1ccccc1)C(C)N1CCCC1 (stereo not shown) [T 2350, 1-(3'-chloro-6'-methoxy-2'-methyl-5'-isopropylphenyl)-1-phenyl-2-pyrriolidino-propan-1-ol] | -2% | 25.5% | 2.6% | 24.1% | 15.5% | 21.2% | 49.8% | 40.5% | 7.00 | 6.65 | > 4500 mg/kg | – |
| CCCC(C)(C)c1cc(C)c(OC)c(C(O)(c2ccccc2)C(C)N2CCCC2)c1 (stereo not shown) [T 2111, 1-(2'-methoxy-3'-methyl-5'-tertiary-hexylphenyl)-1-phenyl-2-pyrrolidino-propan-1-ol] | 19.4% | -7.1% | 9.5% | 36.8% | 33.5% | 23.4% | 33.8% | 37.1% | 6.64 | 8.77 | 4450 mg/kg | – |
| COc1ccc(C(C)(C)C)cc1C(O)(c1ccccc1)C(C)N1CCCCC1 (stereo not shown) [T 2259, 1-(2'-methoxy-5'-tertiary-butylphenyl)-1-phenyl-2-piperidino-propan-1-ol] | 19.4% | 38.8% | 94% | 46.5% | 28.7% | 110% | 76.6% | 59.8% | 6.40 | 6.84 | 560 mg/kg | – |
| COc1ccc(C(O)(c2cc(C(C)(C)C)cc(C)c2OC)C(C)N2CCCCC2)c(OC)c1 (stereo not shown) [T 2455, 1-(2'-methoxy-3'-methyl-5'-tertiary-butylphenyl)-1-(2",4"-dimethoxyphenyl)-2-piperidino-propan-1-ol] | 13.3% | -23.5% | 21.4% | 39.8% | 31.3% | 34.8% | 62.4% | 55.8% | 6.88 | 12.93 | 4550 mg/kg | – |
| 1-(2'-methoxy-3'-methyl-5'-tertiary-butylphenyl)-1-(2"-methoxy-4"-hydroxyphenyl- (or 2"-hydroxy-4"-methoxyphenyl)-2-piperidino-propan-1-ol [T 2458] | – | – | – | – | – | – | – | – | 5.60 | 8.06 | – | Mean percentage variation in the elimination of Chloride [1, 12]: 16.9%; Mean percentage variation in the elimination of H2O [1, 12]: 30.9%; Mean percentage variation in the elimination of Sodium [1, 12]: 40.4%; Mean percentage variation in the elimination of potassium ([1]; 40 μmol/kg body wt., relative to mean K+ elimination of the controls): 49.0%; Mean percentage variation in the elimination of Chloride [1, 13]: 59.0%; Mean percentage variation in the elimination of H2O [1, 13]: 83.8%; Mean percentage variation in the elimination of Sodium [1, 13]: 84.2%; Mean percentage variation in the elimination of potassium ([1]; 80 μmol/kg body wt., relative to mean K+ elimination of the controls): 37.7%; LD50 [2]: 3200 mg/kg |
| N=C(N)NC(=O)c1nc(Cl)c(N)nc1N [N-amidino-3.5-diamino-6-chloropyrazinocarboxamide] | – | – | – | – | – | – | – | – | – | – | – | LD50 [3]: 70 mg/kg |

— patent US4361573A, “α,α-Diaryl-β-(tert-amino)-propanols and diuretic pharmaceutical compositions containing them” (Temmler AG, priority 1974, dated 1982)
